The source of these data is patent US12528777B2, “Quinazolinones derivatives for treatment of non-alcoholic fatty liver disease, preparation and use thereof” (Council of Scientific and Industrial Research, priority 2020, dated 2026).

In series [1] the test system is HepG2 cells. In words: Basal oxygen consumption rate (OCR) by Seahorse. The class given is cell-based. The note with it: 5 μM, 24 hours, hydrochloride. The procedure: HepG2 cells were plated in Seahorse cell culture microplates (24 well). Cells were treated with 5 μM of compounds 9, 107, 238 and 238a for 24 hours. The calibrator plate was dipped in the calibrator solution and incubated overnight at 37° C. in a non-CO2 incubator. The next day, cells were washed with Agilent Seahorse XF Base Medium, Minimal DMEM twice, making sure to leave at least 50 μl of media in the wells and incubated for 1 hour at 37° C. in a non-CO2 incubator. Following this, oxygen consumption rate was measured in the Seahorse instrument. FIG. 12 illustrates basal oxygen consumption rate of compounds 9, 107, 238a, and 238.

In series [2] the test system is HepG2 cells. Nature of the series: Confocal microscopy: lipid droplets in oleate induced HepG2 cells. Format: cell-based. Further details: key to Reduction in Lipid Droplets: + = slight or in insignificant; ++ = Moderate; +++ and ++++ = active; +++ and ++++ = active; +++++ = very active. The method, boiled down: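 HepG2 cells were loaded with 250 μM oleate and given compound in DMSO (10 μM screen; 10 nM–5 μM dose series) for 24 h; BSA as negative control. Lipid droplets stained with BODIPY/Hoechst, imaged confocally; mean droplets per cell counted over ~20 cells versus oleate-only cells.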

The test system of series [3] is ATGL. Nature of the series: Western blot of ATGL level in HepG2 cells. Format: cell-based. Further details: key to Increase in ATGL level: + = slight or in insignificant; ++ = Moderate; +++ and ++++ = active; +++ and ++++ = active; +++++ = very active. To be noted: HepG2 cells, western blot, score. The method, boiled down: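 HepG2 cells were treated with compound 24 h (10 μM screen; 50 nM–5 μM dose series) and lysed. 30 μg protein was western blotted for ATGL, with actin as loading reference. ATGL increase was expressed as percent of the 1.6-fold siCOP1 maximum and plotted against log concentration for EC50.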
In general terms: In western blotting, separated proteins are transferred to a membrane and probed.

The subject of series [4] is ATGL. In words: Immunoprecipitation assay of ATGL ubiquitination in myc-ATGL HepG2 cells. The note with it: 5 μM, 24 hours, MG-132, poly ubiquitin smear. Format: cell-based. Here is the method:
To this end, an immunoprecipitation assay was performed wherein HepG2 cells overexpressing myc-ATGL were transfected with HA-Ubiquitin and treated with 5 μM of the compounds 9, 10, 107, 215, 219 and 238. MG-132, a proteasomal inhibitor, was added 4 hours before harvesting the cells. Immune complexes were pulled down with anti-myc antibody and immunoblot was done using anti-HA antibody. The resultant smears on the blot reflect the ubiquitination status of ATGL.
For checking the change in the ubiquitination status of ATGL on compound treatment, Myc-ATGL expressing HepG2 cells (ATGL overexpressing cell line) was transfected with 2 μg of a plasmid harboring the HA tagged ubiquitin gene using Lipofectamine 2000 reagent (Invitrogen) in OptiMEM media (HiMedia). Fresh DMEM complete media was added after 8-10 hours of transfection. After roughly 24 hours of transfection, 5 μM of the compounds 9, 10 and 107 was added and cells were harvested post 24 hours of treatment. 4 hours prior to cell harvesting, 10 μM of proteasomal inhibitor MG132 (Calbiochem, Merck Millipore) was added to the cells. Proteins were isolated from the cells and protein concentration was estimated as described previously. 30 μl of PureProteome Protein A/G Mix Magnetic Beads (Merck Millipore) was taken in a 1.5 ml microcentrifuge tube, placed in a Magna Rack (Merck Millipore) and allowed to adhere to the side of the tube. 200 μg of protein was used for immunoprecipitation reaction in a reaction volume of 1 ml. 2 μl of anti-Myc primary antibody (Cell Signaling Technology) was added and the tube was incubated overnight at 4° C. in a rotary shaker. The next day, the tube was placed back in the Magna Rack and the beads were allowed to attach to the tube. To remove non-specific and unattached reactants, 1×PBS and 0.1% Triton-X was used for washing. 2× loading dye and Lysis Buffer was added and heated at 95° C. for 10 minutes to allow the immune complex to dislodge from the magnetic beads. Western Blot was performed subsequently as described before with anti-HA primary antibody for immunoblotting (Cell Signaling Technology). The activity trends of the synthesized compounds are disclosed in Table-5.

Series [5] addresses T1, COP1 (Homo sapiens, UniProt Q8NHY2). Nature of the series: Immunoprecipitation assay of COP1 autoubiquitination in HepG2 cells. The class given is cell-based. To be noted: 5 μM, 24 hours, MG-132. The procedure:
COP1 is capable of auto ubiquitinating its own self and getting degraded via the proteasomal pathway. To probe into this, HepG2 cells were co-transfected with HA tagged Ubiquitin and myc-flag tagged COP1. The transfected cells were treated with 5 μM of compounds 9, 10, 107 and 238 for 24 hours. MG-132, a proteasomal inhibitor, was added 4 hours before harvesting the cells. Immune complexes were pulled down with anti-myc antibody and immunoblot was done using anti-HA antibody. […] Thus, the compounds of the present disclosure could be potent therapeutic targets by being able to block the proteasomal degradation of ATGL which would then be able to carry out its lipolytic action and reverse the symptoms of steatosis.
For checking the autoubiquitination status of COP1, HepG2 cells were cotransfected with 2 μg each of Myc-DDK-COP1 and HA-Ub plasmids using Lipofectamine 2000 reagent (Invitrogen) in OptiMEM media (HiMedia). The rest of the procedure is similar to that done for Myc-ATGL.

Series [6] has as its system ATGL. In words: Reversal of ATGL decrease in COP1 overexpressing HepG2 cells. The class given is cell-based. The note with it: myc-DDK-COP1, 5 μM, 24 hours. Here is the method:
COP1 is an E3 ubiquitin ligase with ATGL as one of its targets for ubiquitination and subsequent proteasomal degradation by 26S proteasome. Therefore, it is only legit for ATGL levels to decrease upon COP1 overexpression. To this end, HepG2 cells were transfected with 500 ng of myc-DDK-COP1 plasmid using Lipofectamine 2000 and treated with 5 μM of the compounds 9 and 10 for 24 hours. 48 hours post transfection, cells were harvested and western blot was carried out.

Series [7] deals with ATGL. Nature of the series: qPCR of ATGL mRNA in HepG2 cells. The class given is cell-based. The note with it: 5 μM and 10 μM, 24 hours. Here is the method: (§1) Ubiquitination of ATGL by COP1 is a post translational event, therefore, it is expected that the mRNA level of ATGL will not change compared to control upon treatment with the compound of the present disclosure which inhibit COP1. To establish this, HepG2 cells were treated with 5 μM and 10 μM of the compounds 9, 107, 171, 179 and 73 for 24 hours. RNA was isolated using TRIzol reagent followed by chloroform treatment and precipitation with isopropanol. cDNA was obtained from the isolated RNA and qPCR was carried out using SyBr green reagent. COP1 and ATGL gene expression levels were checked. 18s was used as control. FIG. 8 illustrates that compounds exert no effect on the mRNA levels of ATGL.
For orientation: In qPCR the cycle at which signal appears reflects the starting amount.

The test system of series [8] is COP1. In words: qPCR of COP1 mRNA in HepG2 cells. The class given is cell-based. The note with it: 5 μM and 10 μM, 24 hours. The procedure: as §1
Series [9] in a line: Lipophilicity assay (octanol/buffer). The class given is physicochemical. The procedure:
1.56 g NaH2PO4·2H2O was dissolved in 0.5 L water in a 1 L beaker. After adjusting pH to 7.4 using NaOH solution, the volume was made up to 1 L. Equal volumes of sodium phosphate buffer (10 mM, pH 7.4) and n-octanol were added to a separation funnel and mixed thoroughly by shaking and inverting the funnel several times. The two layers were allowed to separate for overnight and then dispensed in two separate glass bottles. 10 mM stock solution was prepared in 100% DMSO and stored at 4° C. 495 μL of organic phase (1-octanol) was added to each well of a 2 mL deep well plate, followed by 495 μL of buffer and 10 μL of test compound was added. The plate was incubated for 3 hr at room temperature on a plate shaker at 500 rpm. After incubation, the samples were allowed to equilibrate for 20 min and then centrifuged at 4000 rpm for 30 min for complete phase separation and analysed by LC-UV.
Log D=Log (area of octanol/area of buffer)

The nature of another series: Plasma stability assay. Format: in vitro ADME, human. Here is the method: 1 mM Stock of test compound was prepared from 10 mM initial stock solution of compounds by diluting 10 μL of 10 mM stock with 90 μL of DMSO. Then 10 μL of 1 mM stock was diluted with 90 µL of DMSO to give 100 μM concentration. The frozen plasma was thawed at room temperature and centrifuged at 1400 rpm at 4° C., for 15 minutes. Approximately […] of the clear supernatant fraction was transferred to a separate tube and was used for the assay. Final working stock of 1 μM was prepared by diluting 3 μL of 100 μM with 297 μL of plasma. Plasma containing the test compound was incubated for 120 min at 37° C. in shaker with 500 rpm. 50 μL of aliquot of sample at 0, 15, 30, 60 and 120 minutes were precipitated with 150 μL of acetonitrile containing internal standard and centrifuged at 4000 rpm at 4° C. for 20 minutes. 120 μL of supernatant was diluted with 120 μL of water and analyzed by LC-MS/MS.

Series [10] has as its target T1, COP1. Nature of the series: In vitro ubiquitination of purified ATGL by COP1 with UbcH6. Format: biochemical. Set-up: host or cells: HEK293A. The note with it: 5 μM compound, COP1 overexpressing HEK293A lysate. The text has this: Purification of ATGL protein and obtaining COP1 overexpressing cell lysate: Myc-ATGL plasmid and Myc-DDK-COP1 plasmid ([…] each) were transfected separately in cultured HEK293A cells with the help of Lipofectamine2000 (Invitrogen). Cells were harvested in Lysis Buffer and protein solution was extracted as described previously. The Lysis Buffer used to harvest COP1 overexpressing cells had 0.1% SDS supplemented in it. The concentration of protein was estimated using Bradford assay. For source of E3 ligase, the total cell lysate from COP1 overexpressing HEK293A cells were used.
For purification of Myc-ATGL: 1 ml of Ni^2+-NTA resin (Roche) was taken in a 15 ml centrifuge tube and centrifuged at 2000 RPM for 5 minutes. The upper ethanol layer was discarded and the pellet was washed in 1×PBS twice to remove any remaining traces of ethanol. The pellet was finally washed once with Lysis Buffer for equilibration. […] The tube was incubated overnight at 4° C. in a rotary shaker.
The next day, the solution was centrifuged at 2000 RPM for 10 minutes and the supernatant collected. Lysis Buffer (containing protease inhibitor cocktail twice the previous concentration) was used for washing the beads twice to remove non-specific and unattached reactants in a stringent condition. The beads were finally washed once with 1×PBS containing the same amount of protease inhibitor for equilibration. 300 μl of 500 mM Imidazole (Sigma Aldrich) solution in 1×PBS was added to the resin for elution of ATGL and centrifuged at 2000 RPM for 30 minutes and the eluted protein was collected. To the separated resin, 300 μl of 1M Imidazole solution was added and centrifuged at 2000 RPM for 30 minutes and the second elute was collected. […] of eluted protein from each elution was boiled with 5 μl of Laemmli's buffer at 95° C. for 10 minutes and run in 10% SDS-PAGE gel. The supernatant collected before elution of ATGL and the proteins still attached to the Ni^2+-NTA resin were also run in the SDS-PAGE. The resolved proteins were subsequently transferred on PVDF membranes and probed with anti-myc primary antibody to check the presence of purified ATGL in the elute. Also to check the yield of the purified protein, 40 μl of the elute was run in 10% SDS page and stained with Coomassie Brilliant Blue solution followed by destaining with methanol, glacial acetic acid and water in a 50:40:10 ratio.
For identifying the E2 ubiquitin-conjugating enzyme responsible for ATGL ubiquitination by COP1, an in vitro ubiquitinylation kit (Enzo Life Sciences) was used. The assay was reconstituted as per manufacturer's protocol with the panel of E2 conjugating enzymes provided and other required components at the mentioned concentrations. The reaction was carried out for 6 hours following which it was quenched as per directions with the provided 2× non-reducing gel buffer and then analysed by western blotting.
Having identified the E2 ubiquitin conjugating enzyme as UbcH6, ubiquitination assay was set up in vitro as described previously with 5 μM of the compound 9, 107, 171, 179 and 73 followed by quenching and analysis by western blotting.
Ubiquitination of a target protein is carried out in a three step process involving three different enzymes: E1 ubiquitin activating enzyme, E2 ubiquitin conjugating enzyme and E3 ubiquitin ligase. In humans, there is only one E1 ubiquitin activating enzyme and multiple E2 and E3 enzymes. […]

Molecules are shown by their SMILES. “Also recorded” adds a separate entry of the source.

T1 sequence (Q8NHY2 whole entry): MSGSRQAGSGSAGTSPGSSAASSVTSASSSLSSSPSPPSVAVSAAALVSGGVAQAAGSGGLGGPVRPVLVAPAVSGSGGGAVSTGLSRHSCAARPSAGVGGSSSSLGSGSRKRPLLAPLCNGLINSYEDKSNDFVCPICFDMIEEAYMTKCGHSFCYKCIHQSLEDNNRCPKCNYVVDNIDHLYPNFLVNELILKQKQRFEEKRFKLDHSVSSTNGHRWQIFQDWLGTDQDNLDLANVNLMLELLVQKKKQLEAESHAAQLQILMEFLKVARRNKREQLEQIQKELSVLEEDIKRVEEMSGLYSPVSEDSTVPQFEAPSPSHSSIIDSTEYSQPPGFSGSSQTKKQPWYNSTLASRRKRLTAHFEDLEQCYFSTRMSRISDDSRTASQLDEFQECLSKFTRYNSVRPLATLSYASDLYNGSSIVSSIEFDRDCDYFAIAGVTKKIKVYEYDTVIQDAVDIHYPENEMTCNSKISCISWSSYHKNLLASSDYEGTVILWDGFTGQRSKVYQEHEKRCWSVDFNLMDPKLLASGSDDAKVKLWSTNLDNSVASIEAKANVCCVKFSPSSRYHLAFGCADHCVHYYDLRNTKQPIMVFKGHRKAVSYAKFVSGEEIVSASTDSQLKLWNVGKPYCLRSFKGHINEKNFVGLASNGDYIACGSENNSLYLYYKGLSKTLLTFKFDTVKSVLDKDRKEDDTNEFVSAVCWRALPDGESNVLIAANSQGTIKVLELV

Take `COCCn1c(CN2CCCCC2)nc2ccc(NC(=O)Nc3cccc(C(C)=O)c3)cc2c1=O.Cl` [Compound 238a, 1-(3-acetylphenyl)-3-(3-(2-methoxyethyl)-4-oxo-2-(piperidin-1-ylmethyl)-3,4-dihydroquinazolin-6-yl)urea hydrochloride]: in the series with HepG2 cells [1], the “Basal oxygen consumption rate” value is reported as “higher oxygen consumption rate compared to control; also recorded: increase in the basal OCR values”.
For `COCCn1cnc2ccc(NC(=O)Nc3ccc(C(C)=O)cc3)cc2c1=O` [Compound 10, 1-(4-acetylphenyl)-3-(3-(2-methoxyethyl)-4-oxo-3,4-dihydroquinazolin-6-yl)urea], the “Number of lipid droplets” value in the series with HepG2 cells [2] (HepG2 cells, 250 μM oleate induction) is given as “decrease in the number of lipid droplets”. The “Reduction in Lipid Droplets” value in the series on HepG2 cells [2] (oleate induced HepG2 cells, score) is on record as “++++”. The “Increase in ATGL level” value in the series with ATGL [3] is “++++”. The “ATGL ubiquitination in HepG2 cells” value with ATGL [4] is “reduction, however, could not be seen”. Further, at COP1 [5], the “COP1 autoubiquitination in HepG2 cells” value is reported as “markedly reduce COP1's auto ubiquitination property”. In addition, the “Restoration of ATGL level upon COP1 overexpression” value with ATGL [6] is reported as “could restore the reduced ATGL level; also recorded: could restore ATGL to its normal level”.
For the compound `COCCn1cnc2ccc(NC(=O)Nc3cccc(C(C)=O)c3)c(Br)c2c1=O` [Compound 73, 1-(3-acetylphenyl)-3-(5-bromo-3-(2-methoxyethyl)-4-oxo-3,4-dihydroquinazolin-6-yl)urea], the “ATGL mRNA level” value in the series on ATGL [7] is given as “no significant changes”. The “COP1 mRNA level” value in the series with COP1 [8] is “no significant changes”. In [9] (n-octanol / 10 mM sodium phosphate buffer pH 7.4, LC-UV), this compound showed a logD of 1.95. Besides, the “Lipophilicity class from Log D” value in [9] (pH 7.4) is recorded as “ideal lipophilicity”. The “Mean % remaining at 2 hrs in human Plasma” value in “Plasma stability assay” (1 μM, 37° C., 120 min, LC-MS/MS) stood at 10.3%. For the same compound, the “Plasma stability” value in “Plasma stability assay” (human plasma, after 2 hours, with respect to Propantheline) is “lower plasma stability”. For the same compound, at COP1 [10], the “ATGL ubiquitination by COP1 in vitro” value was “effective in reducing the ubiquitination of ATGL by COP1”.

One may read the logD as the decadic logarithm of the distribution of all forms, ionised or not, between an organic phase and buffer at a given pH.
